Results: article PMC7200681, “The calcitonin-like system is an ancient regulatory system of biomineralization” (Scientific Reports, 2020)

Columns and labels:
Design in all cases: species or system Mytilus galloprovincialis
[1] = test system: alpha-carbonic anhydrase (CA) esterase activity in mussel mantle edge; assay: Esterase (carbonic anhydrase) activity in mantle after ex-vivo incubation; conditions: after exposure to CALCIIa 10 μM or ouabain 2 mM; 4-Nitrophenyl acetate substrate; n = 6
Procedure: (§1) (A) Esterase activity and (B) Acid phosphatase activity. Enzyme activity was quantified in protein extracts from the mantle of control or challenged samples that were incubated with the mussel CALCIIa peptide. Values represent the mean ± SEM (CA, n = 6 and TRAP, n = 10) performed in duplicate. Prism GraphPad v5 software was used to assess the significance of the differences between the groups using One-way Anova and Tukey’s multiple comparison test. […] C - control; P - peptide (10 μM); O - ouabain (2 mM), OP - ouabain (2 mM) and peptide (10 μM); PreOP - pre stimulation for 1 hour with the peptide and 4 hours incubation with OP.
(§2) The posterior mantle edge region of the Mediterranean mussel was collected and washed in culture medium. The composition of the culture medium was as described in[91] […] The culture medium was supplemented with heat inactivated 2% FBS (SIGMA-ALDRICH), 0.1% penicillin: streptomycin antibiotic mix (10.000 U:10 mg/ml, SIGMA-ALDRICH) and 250 μg/ml sterile filtered 1:100 amphotericin B solution (Sigma-Aldrich). The posterior mantle edge from mussels was collected into culture medium and cut into fragments of approximately 1–2 mm in length. […]
Esterase activity in the mussel posterior mantle edge (n = 6/experimental group) was quantified using a colorimetric assay that measures the conversion of the substrate 4-Nitrophenyl acetate to p-nitrophenolate[92]. […]

[2] = test system: acid phosphatase (AP) activity in mussel mantle edge; assay: Acid phosphatase (TRAP) activity in mantle after ex-vivo incubation; conditions: after exposure to CALCIIa 10 μM or ouabain 2 mM; TRAP assay, pNPP, pH 5.3; p < 0.05
Procedure: as §1, §2
Acid phosphatase activity of the mantle protein extracts (n = 6/ group) was determined using 96 well-plates (GREINER, Germany) and a tartrate resistant acid phosphatase (TRAP) assay as described in[93].

[3] = test system: mussel mantle edge; assay: Ex-vivo incubation of mantle edge fragments, calcium quantification by MP-AES; conditions: 4 h at 19-20 °C; CALCIIa 10 μM or ouabain 2 mM alone; MP-AES at 393.366 nm; mean ± SEM; control 400.67 ±13.83 ppm; SEM
Procedure: Figure 7 Effect of the mussel calcitonin-like peptide on (A) calcium (ppm) concentration in the mantle edge and (B) calcium uptake by mantle cells of the Mediterranean mussel. (A) The quantity of calcium (ppm) present in the mantle edge after mussel CALCIIa peptide incubation was measured using a Microwave Plasma-Atomic Emission Spectrometer (MP-AES, Agilent) at 393.366 nm. A standard curve for calcium was performed before analysing the samples. In vitro mantle assays with CALCIIa peptide and with ouabain and control (culture medium and mantle) were repeated on at least 3 independent occasions. For each assay at least ten replicates were performed and the mantle edge distal to the umbo was used (one mantle fragment per replica). Prism GraphPad v5 software was used to assess the significance of differences between the groups using a One-way Anova and Tukey’s multiple comparison test. […] C - control (no peptide or ouabain); P - peptide (10 μM); O - ouabain (2 mM), OP - ouabain (2 mM) and peptide (10 μM); PreOP - pre -stimulation for 1 hour with the peptide followed by 4 hours incubation with OP. (B) Digital photographs of the mussel mantle cells in the presence (CALCIIa, 10 μM) or absence (control) of the mussel CALCIIa peptide. Calcium ions were stained with 50 mM of Calcein (green) and cell nuclei (blue) with DAPI (Acros Organics). An increase in cellular fluorescence represents an increase in calcium uptake. Fluorescence of the CALCIIa peptide stimulated cells was 1.9 times higher than the control. The average mantle cell size was 3–4 μm and fluorescent images were taken using a Leica DM IL microscope coupled to a Visicam HDMI 6 digital camera and photographs were analysed using ImageJ software (v. 1.52a) to calculate the fluorescence intensity and for image overlay. The scale bar is indicated.
The posterior mantle edge region of the Mediterranean mussel was collected and washed in culture medium. The composition of the culture medium was as described in[91] […]

C[C@@H]1O[C@@H](O[C@H]2C[C@@H](O)[C@]3(CO)[C@H]4[C@H](O)C[C@]5(C)[C@@H](C6=CC(=O)OC6)CC[C@]5(O)[C@@H]4CC[C@]3(O)C2)[C@H](O)[C@H](O)[C@H]1O [Ouabain, ouabain]
CA esterase activity in mantle edge (in words) [1]: neither of the bivalve CALCs or ouabain modified | Acid phosphatase (AP) activity in mantle edge compared to control (in words) [2]: significantly decreased | Calcium in the mantle edge after incubation [3]: 588.71 ± 42.92 ppm
